Source: patent publication US11357246B2, “High intensity sweeteners” (Firmenich Incorporated, priority 2015, dated 2022)

target: T1, hT1R2/hT1R3 (Homo sapiens, UniProt Q7RTX0+Q8TE23); test: HTS-Sweet: FLIPR calcium fluorometric imaging assay in cells stably expressing the human sweet taste receptor and a promiscuous G protein; format: cell-based; conditions: not given
T1 construct: expressed in transfected cells; parental cells lack the receptor
T1 sequence (Q8TE23 20-839): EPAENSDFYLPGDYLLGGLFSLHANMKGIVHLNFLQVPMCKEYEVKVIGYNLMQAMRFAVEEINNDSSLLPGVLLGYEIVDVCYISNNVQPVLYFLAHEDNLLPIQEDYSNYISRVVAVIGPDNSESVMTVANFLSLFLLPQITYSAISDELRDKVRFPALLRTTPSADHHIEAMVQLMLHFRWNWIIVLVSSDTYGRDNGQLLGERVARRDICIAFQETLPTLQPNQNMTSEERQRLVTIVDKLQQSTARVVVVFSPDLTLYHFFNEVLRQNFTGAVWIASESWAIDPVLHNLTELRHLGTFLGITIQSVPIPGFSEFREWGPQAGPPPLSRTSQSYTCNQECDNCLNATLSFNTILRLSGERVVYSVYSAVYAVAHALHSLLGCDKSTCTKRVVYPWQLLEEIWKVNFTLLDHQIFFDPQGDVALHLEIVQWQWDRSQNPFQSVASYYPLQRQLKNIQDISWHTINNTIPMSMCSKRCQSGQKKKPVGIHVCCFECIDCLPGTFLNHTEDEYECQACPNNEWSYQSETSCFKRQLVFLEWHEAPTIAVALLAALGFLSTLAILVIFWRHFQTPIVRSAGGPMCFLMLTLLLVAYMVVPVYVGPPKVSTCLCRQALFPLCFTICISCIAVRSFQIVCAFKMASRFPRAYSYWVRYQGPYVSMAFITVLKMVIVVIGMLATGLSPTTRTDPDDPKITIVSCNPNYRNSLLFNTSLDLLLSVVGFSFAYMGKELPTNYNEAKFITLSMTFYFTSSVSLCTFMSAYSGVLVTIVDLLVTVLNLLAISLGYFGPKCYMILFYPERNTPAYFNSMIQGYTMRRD
T1 sequence (Q7RTX0 21-852): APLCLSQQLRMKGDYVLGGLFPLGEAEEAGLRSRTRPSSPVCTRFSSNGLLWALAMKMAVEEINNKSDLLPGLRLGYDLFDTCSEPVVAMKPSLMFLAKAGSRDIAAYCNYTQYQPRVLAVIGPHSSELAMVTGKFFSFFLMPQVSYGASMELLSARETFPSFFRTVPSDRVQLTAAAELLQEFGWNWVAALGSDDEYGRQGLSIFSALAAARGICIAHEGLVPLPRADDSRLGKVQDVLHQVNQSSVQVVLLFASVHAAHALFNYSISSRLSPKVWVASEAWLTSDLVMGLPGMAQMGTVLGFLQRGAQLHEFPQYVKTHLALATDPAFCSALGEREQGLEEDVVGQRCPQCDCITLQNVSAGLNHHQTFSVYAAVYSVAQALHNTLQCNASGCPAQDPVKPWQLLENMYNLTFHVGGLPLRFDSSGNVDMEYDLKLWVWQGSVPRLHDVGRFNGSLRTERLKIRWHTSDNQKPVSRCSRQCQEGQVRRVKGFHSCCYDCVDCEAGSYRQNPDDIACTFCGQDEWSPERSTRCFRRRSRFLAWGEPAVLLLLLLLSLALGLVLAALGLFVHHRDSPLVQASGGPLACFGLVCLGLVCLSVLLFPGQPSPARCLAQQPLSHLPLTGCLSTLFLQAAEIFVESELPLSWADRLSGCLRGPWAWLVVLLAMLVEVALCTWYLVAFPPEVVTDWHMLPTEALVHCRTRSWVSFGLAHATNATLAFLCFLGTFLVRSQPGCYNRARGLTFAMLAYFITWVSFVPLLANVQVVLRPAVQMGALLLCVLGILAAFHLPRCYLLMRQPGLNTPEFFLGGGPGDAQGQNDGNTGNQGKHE
Method: Compound activity (EC50) was determined using an automated fluorometric imaging assay on a FLIPR instrument (Fluorometric […] Plate Reader, Molecular Devices, Sunnyvale, Calif.). Cell stably expressing the human sweet taste receptor and a promiscuous G protein were seeded into 384-well plates (at approximately 40,000 cells per well). Cells were grown for 24 hours at 37° C. Cells were then loaded with the calcium dye Fluo-4AM (Molecular Probes, Eugene, Oreg.), 4 μM in a phosphate buffered saline (D-PBS) (Invitrogen, Carlsbad, Calif.), for 1 hour at room temperature. After replacement with 25 μl D-PBS, stimulation was performed in the FLIPR instrument and at room temperature by the addition of 25 μl D-PBS supplemented with different stimuli at concentrations corresponding to twice the desired final level. Receptor activity was quantified by determining the maximal fluorescence increases (using a 480 nm excitation and 535 nm emission) after normalization to basal fluorescence intensity measured before stimulation.
For dose-responses analysis, stimuli were presented in duplicates at 10 different concentrations ranging from 0.4 μM to 200 μM. EC50 s were determined using a non-linear regression algorithm, where the Hill slope, bottom asymptotes and top asymptotes were allowed to vary.

Row | Compound | EC50 [µM]
1 | CC(CCC(OC1OC(COC2OC(CO)C(O)C(O)C2O)C(O)C(O)C1OC1OC(CO)C(O)C(O)C1O)C(C)(C)O)C1CCC2(C)C3CC=C4C(CCC(OC5OC(COC6OC(CO)C(O)C(O)C6O)C(O)C(O)C5O)C4(C)C)C3(C)C(O)CC12C (stereo not drawn) [Compound 12] | 17 to 30
2 | C[C@H](CC[C@@H](O[C@@H]1O[C@H](CO[C@H]2O[C@H](CO)[C@@H](O)[C@H](O)[C@H]2O)[C@@H](O)[C@H](O)[C@H]1O[C@@H]1O[C@H](CO)[C@@H](O)[C@H](O)[C@H]1O)C(C)(C)O)C1CC[C@@]2(C)C3CC=C4C(CC[C@H](O[C@@H]5O[C@H](CO)[C@@H](O)[C@H](O)[C@H]5O)C4(C)C)[C@]3(C)[C@H](O)C[C@]12C (stereo partly drawn) [Compound 3] | < 17
3 | C[C@H](CC[C@@H](O[C@@H]1O[C@H](CO[C@H]2O[C@H](CO)[C@@H](O)[C@H](O)[C@H]2O)[C@@H](O)[C@H](O)[C@H]1O[C@@H]1O[C@H](CO)[C@@H](O)[C@H](O)[C@H]1O)C(C)(C)O)C1CC[C@@]2(C)C3CC=C4C(CC[C@H](O[C@@H]5O[C@H](CO[C@H]6O[C@H](CO)[C@@H](O)[C@H](O)[C@H]6O)[C@@H](O)[C@H](O)[C@H]5O)C4(C)C)[C@]3(C)[C@H](O)C[C@]12C (stereo partly drawn) [Compound 4] | < 17

same assay, conditions: FLIPR, Fluo-4AM, 10 concentrations 0.4 μM to 200 μM in duplicates; read-out: Compound EC50s for hT1R2/hT1R3

Row | Compound | EC50 [µM]
4 | C[C@H](CC[C@@H](O[C@@H]1O[C@H](CO)[C@@H](O)[C@H](O)[C@H]1O[C@@H]1O[C@H](CO)[C@@H](O[C@H]2O[C@H](CO)[C@@H](O)[C@H](O)[C@H]2O)[C@H](O)[C@H]1O)C(C)(C)O)C1CC[C@@]2(C)C3CC=C4C(CC[C@H](O[C@@H]5O[C@H](CO)[C@@H](O)[C@H](O)[C@H]5O)C4(C)C)[C@]3(C)[C@H](O)C[C@]12C (stereo partly drawn) [Compound 9] | 17 to 30
5 | C[C@H](CC[C@@H](O[C@@H]1O[C@H](CO[C@H]2O[C@H](CO)[C@@H](O)[C@H](O)[C@H]2O)[C@@H](O)[C@H](O)[C@H]1O[C@@H]1O[C@H](CO)[C@@H](O[C@H]2O[C@H](CO)[C@@H](O)[C@H](O)[C@H]2O)[C@H](O)[C@H]1O)C(C)(C)O)C1CC[C@@]2(C)C3CC=C4C(CC[C@H](O)C4(C)C)[C@]3(C)[C@H](O)C[C@]12C (stereo partly drawn) [Compound 16] | 17 to 30
6 | C[C@H](CC[C@@H](O[C@@H]1O[C@H](CO)[C@@H](O)[C@H](O)[C@H]1O[C@@H]1O[C@H](CO)[C@@H](O)[C@H](O)[C@H]1O)C(C)(C)O)C1CC[C@@]2(C)C3CC=C4C(CC[C@H](O[C@@H]5O[C@H](CO[C@@H]6O[C@H](CO)[C@@H](O)[C@H](O)[C@H]6O)[C@@H](O)[C@H](O)[C@H]5O[C@H]5O[C@@H](CO)[C@H](O)[C@@H](O)[C@@H]5O)C4(C)C)[C@]3(C)[C@H](O)C[C@]12C (stereo partly drawn) [Compound 32] | > 30
7 | C[C@H](CC[C@@H](O[C@@H]1O[C@H](CO)[C@@H](O[C@@H]2O[C@H](CO)[C@@H](O)[C@H](O)[C@H]2O)[C@H](O)[C@H]1O[C@@H]1O[C@H](CO)[C@@H](O)[C@H](O)[C@H]1O)C(C)(C)O)C1CC[C@@]2(C)C3CC=C4C(CC[C@H](O)C4(C)C)[C@]3(C)[C@H](O)C[C@]12C (stereo partly drawn) [Compound 35] | 17 to 30
8 | C[C@H](CC[C@@H](O[C@@H]1O[C@H](CO[C@@H]2O[C@H](CO)[C@@H](O)[C@H](O)[C@H]2O)[C@@H](O[C@@H]2O[C@H](CO)[C@@H](O)[C@H](O)[C@H]2O)[C@H](O)[C@H]1O)C(C)(C)O)C1CC[C@@]2(C)C3CC=C4C(CC[C@H](O[C@@H]5C[C@H](COC6O[C@H](CO)[C@@H](O)[C@H](O)[C@H]6O)[C@@H](O)[C@H](O)[C@H]5O)C4(C)C)[C@]3(C)C(=O)C[C@]12C (stereo partly drawn) [Compound 29] | > 30
9 | C[C@H](CC[C@@H](O[C@@H]1O[C@H](CO[C@@H]2O[C@H](CO[C@@H]3O[C@H](CO)[C@@H](O)[C@H](O)[C@H]3O)[C@@H](O)[C@H](O)[C@H]2O)[C@@H](O)[C@H](O)[C@H]1O[C@@H]1O[C@H](CO)[C@@H](O)[C@H](O)[C@H]1O)C(C)(C)O)C1CC[C@@]2(C)C3CC=C4C(CC[C@H](O[C@@H]5O[C@H](COC6O[C@H](CO)[C@@H](O)[C@H](O)[C@H]6O)[C@@H](O)[C@H](O)[C@H]5O)C4(C)C)[C@]3(C)[C@H](O)C[C@]12C (stereo partly drawn) [Compound 30] | > 30
10 | C[C@H](CC[C@@H](O[C@@H]1O[C@H](CO)[C@@H](O)[C@H](O)[C@H]1O[C@@H]1O[C@H](CO)[C@@H](O)[C@H](O)[C@H]1O)C(C)(C)O)C1CC[C@@]2(C)C3CC=C4C(CC[C@H](O[C@@H]5O[C@H](CO[C@H]6O[C@H](COC7O[C@H](CO)[C@@H](O)[C@H](O)[C@H]7O)[C@@H](O)[C@H](O)[C@H]6O)[C@@H](O)[C@H](O)[C@H]5O)C4(C)C)[C@]3(C)[C@H](O)C[C@]12C (stereo partly drawn) [Compound 33] | > 30
11 | C[C@H](CC[C@@H](O[C@@H]1O[C@H](CO[C@@H]2O[C@H](CO)[C@@H](O)[C@H](O)[C@H]2O)[C@@H](O)[C@H](O)[C@H]1O[C@@H]1O[C@H](CO)[C@@H](O)[C@H](O)[C@H]1O)C(C)(C)O)C1CC[C@@]2(C)C3CC=C4C(CC[C@H](O[C@@H]5O[C@H](CO[C@H]6O[C@H](CO[C@H]7O[C@@H](CO)[C@H](O)[C@@H](O)[C@@H]7O)[C@@H](O)[C@H](O)[C@H]6O)[C@@H](O)[C@H](O)[C@H]5O)C4(C)C)[C@]3(C)[C@H](O)C[C@]12C (stereo partly drawn) [Compound 2] | 17 to 30
12 | C[C@H](CC[C@@H](O[C@@H]1O[C@H](CO[C@H]2O[C@H](CO)[C@@H](O)[C@H](O)[C@H]2O)[C@@H](O)[C@H](O)[C@H]1O[C@@H]1O[C@H](CO)[C@@H](O)[C@H](O)[C@H]1O)C(C)(C)O)C1CC[C@@]2(C)C3CC=C4C(CC[C@H](O[C@@H]5O[C@H](CO)[C@@H](O[C@H]6O[C@H](CO)[C@@H](O)[C@H](O)[C@H]6O)[C@H](O)[C@H]5O)C4(C)C)[C@]3(C)[C@H](O)C[C@]12C (stereo partly drawn) [Compound 5] | 17 to 30
13 | C[C@H](CC[C@@H](O[C@@H]1O[C@H](CO)[C@@H](O)[C@H](O)[C@H]1O[C@@H]1O[C@H](CO)[C@@H](O[C@@H]2O[C@H](CO)[C@@H](O)[C@H](O)[C@H]2O)[C@H](O)[C@H]1O)C(C)(C)O)C1CC[C@@]2(C)C3CC=C4C(CC[C@H](O[C@@H]5O[C@H](CO)[C@@H](O)[C@H](O)[C@H]5O)C4(C)C)[C@]3(C)[C@H](O)C[C@]12C (stereo partly drawn) [Compound 13] | 17 to 30
14 | C[C@H](CC[C@@H](O[C@@H]1O[C@H](CO[C@@H]2O[C@H](CO)[C@@H](O)[C@H](O)[C@H]2O)[C@@H](O)[C@H](O)[C@H]1O[C@@H]1O[C@H](CO)[C@@H](O)[C@H](O)[C@H]1O)C(C)(C)O)C1CC[C@@]2(C)C3CC=C4C(CC[C@H](O[C@@H]5O[C@H](CO[C@@H]6O[C@H](CO)[C@@H](O)[C@H](O)[C@H]6O)[C@@H](O)[C@H](O)[C@H]5O)C4(C)C)[C@]3(C)C=C[C@]12C (stereo partly drawn) [Compound 31] | > 30
15 | C[C@H](CC[C@@H](O[C@@H]1O[C@H](CO[C@H]2O[C@H](CO)[C@@H](O)[C@H](O)[C@H]2O)[C@@H](O)[C@H](O)[C@H]1O[C@@H]1O[C@H](CO)[C@@H](O)[C@H](O)[C@H]1O)C(C)(C)O)C1CC[C@@]2(C)C3CC=C4C(CC[C@H](O[C@@H]5O[C@H](CO)[C@@H](O)[C@H](O)[C@H]5O)C4(C)C)[C@]3(C)C(=O)C[C@]12C (stereo partly drawn) [Compound 11] | > 30
